Publication PMC12649549, “Sequence Permutation Generated Lysine and Tryptophan-Rich Antimicrobial Peptides with Enhanced Therapeutic Index” (Antibiotics, 2025)
Where two headings read alike, the source gives them in different places.

How the values were obtained:
[1] = system: Both Gram-positive and -negative bacteria; experiment: Geometric mean MIC, therapeutic index and fold changes of MIC, whole panel of strains; format: cell-based; conditions: for GM G−/+ (geometric mean of the MIC values): Both Gram-positive and -negative bacteria, MH broth, MIC >50 µg/mL counted as 100 µg/mL; for Therapeutic Index (TI) G−/+: HC10/GM, both Gram-positive and -negative bacteria
Method in brief: (§1)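 Selectivity index derived from human red blood cell HC10 relative to geometric mean MIC. Inoculum was 5 × 10^5 CFU/mL in Müller-Hinton or modified LYM broth, and each experiment was repeated independently three times.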

[2] = system: Gram-negative bacteria; experiment: Geometric mean MIC and therapeutic index, Gram-negative bacteria; format: cell-based; conditions: Gram-negative bacteria; for GM G− (geometric mean of the MIC values): MH broth, MIC >50 µg/mL counted as 100 µg/mL; for Therapeutic Index (TI) G−: HC10/GM
Method in brief: as §1

[3] = system: Escherichia coli (ATCC 25922)
Method in brief: (§2)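 Salt and pH tolerance was assessed by determining MICs in LYM medium containing 50–300 mM NaCl, 0.5–2.5 mM MgCl2, or at pH 4.5–6.5, alongside MH broth. The inoculum was 5 × 10^5 CFU/mL.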

[4] = system: Pseudomonas aeruginosa Migula (ATCC 27853)
Method in brief: as §2

[5] = system: A. baumannii 14B00100 (Acinetobacter sp., BCRC number 14B0100)
Method in brief: as §2

[6] = system: S. aureus ATCC 33593
Method in brief: as §2

[7] = system: S. aureus ATCC 33591
Method in brief: as §2

[8] = system: A. baumannii 14B0091 (Acinetobacter sp., BCRC number 14B0091)
Method in brief: as §2

[9] = LYM broth, 0 mM NaCl, 16 h, 37 °C
[10] = LYM broth, 50 mM NaCl, 16 h, 37 °C
[11] = LYM broth, 100 mM NaCl, 16 h, 37 °C
[12] = LYM broth, 200 mM (NaCl), 16 h, 37 °C
[13] = LYM broth, 300 mM (NaCl), 16 h, 37 °C
[14] = MH broth, 5 × 10^5 CFU/mL, 16 h, 37 °C, repeated three times

Ac-LKWLAKKKKWRKW-NH2 [Peptide W5K06]
GM G−/+ (geometric mean of the MIC values) [1]: 57.4 µg/mL
Therapeutic Index (TI) G−/+ [1]: 1.9
GM G− (geometric mean of the MIC values) [2]: 43.5 µg/mL
Therapeutic Index (TI) G− [2]: 2.5
MIC [3, 9]: 6.25 µg/mL
MIC ([3]; LYM broth, 0.5 mM MgCl2): 6.25 µg/mL
MIC ([3]; LYM broth, 1.5 mM MgCl2): 6.25 µg/mL
MIC ([3]; LYM broth, 2.5 mM MgCl2): 6.25 µg/mL
MIC [3, 10]: 12.5 µg/mL
MIC [3, 11]: 50 µg/mL
MIC [3, 12]: >50 µg/mL
MIC [3, 13]: >50 µg/mL
MIC ([3]; LYM broth, pH 4.5): 12.5 µg/mL
MIC ([3]; LYM broth, pH 5.5): 6.25 µg/mL
MIC ([3]; LYM broth, pH 6.5): 3.13 µg/mL
MIC [3, 14]: 25 µg/mL
MIC [4, 9]: 6.25 µg/mL
MIC ([4]; LYM broth, 0.5 mM MgCl2): 6.25 µg/mL
MIC ([4]; LYM broth, 1.5 mM MgCl2): 6.25 µg/mL
MIC ([4]; LYM broth, 2.5 mM MgCl2): 25 µg/mL
MIC [4, 11]: 25 µg/mL
MIC [4, 12]: >50 µg/mL
MIC [4, 13]: >50 µg/mL
MIC ([4]; LYM broth, pH 4.5): 25 µg/mL
MIC ([4]; LYM broth, pH 5.5): 6.25 µg/mL
MIC ([4]; LYM broth, pH 6.5): 3.13 µg/mL
MIC [4, 14]: 50 µg/mL
MIC [5, 9]: 3.13 µg/mL
MIC ([5]; LYM broth, 0.5 mM MgCl2): 3.13 µg/mL
MIC ([5]; LYM broth, 1.5 mM MgCl2): 3.13 µg/mL
MIC ([5]; LYM broth, 2.5 mM MgCl2): 3.13 µg/mL
MIC [5, 10]: 3.13 µg/mL
MIC [5, 11]: 6.25 µg/mL
MIC [5, 12]: 25 µg/mL
MIC [5, 13]: >50 µg/mL
MIC ([5]; LYM broth, pH 4.5): 3.13 µg/mL
MIC ([5]; LYM broth, pH 5.5): 3.13 µg/mL
MIC ([5]; LYM broth, pH 6.5): 1.56 µg/mL
MIC [5, 14]: 50 µg/mL
MIC [6, 9]: 12.5 µg/mL
MIC ([6]; LYM broth, 0.5 mM MgCl2): 12.5 µg/mL
MIC ([6]; LYM broth, 1.5 mM MgCl2): 25 µg/mL
MIC ([6]; LYM broth, 2.5 mM MgCl2): 25 µg/mL
MIC [6, 10]: 25 µg/mL
MIC [6, 11]: 50 µg/mL
MIC [6, 12]: >50 µg/mL
MIC [6, 13]: >50 µg/mL
MIC ([6]; LYM broth, pH 4.5): 12.5 µg/mL
MIC ([6]; LYM broth, pH 5.5): 6.25 µg/mL
MIC ([6]; LYM broth, pH 6.5): 6.25 µg/mL
MIC [6, 14]: >50 µg/mL
MIC [7, 9]: 12.5 µg/mL
MIC ([7]; LYM broth, 0.5 mM MgCl2): 12.5 µg/mL
MIC ([7]; LYM broth, 1.5 mM MgCl2): 12.5 µg/mL
MIC ([7]; LYM broth, 2.5 mM MgCl2): 25 µg/mL
MIC [7, 10]: 25 µg/mL
MIC [7, 11]: 50 µg/mL
MIC [7, 12]: 50 µg/mL
MIC [7, 13]: >50 µg/mL
MIC ([7]; LYM broth, pH 4.5): 12.5 µg/mL
MIC ([7]; LYM broth, pH 5.5): 6.25 µg/mL
MIC ([7]; LYM broth, pH 6.5): 6.25 µg/mL
MIC [7, 14]: >50 µg/mL
MIC [8, 9]: 3.13 µg/mL
MIC ([8]; LYM broth, 0.5 mM MgCl2): 3.13 µg/mL
MIC ([8]; LYM broth, 1.5 mM MgCl2): 3.13 µg/mL
MIC ([8]; LYM broth, 2.5 mM MgCl2): 3.13 µg/mL
MIC [8, 10]: 3.13 µg/mL
MIC [8, 11]: 6.25 µg/mL
MIC [8, 12]: 50 µg/mL
MIC [8, 13]: >50 µg/mL
MIC ([8]; LYM broth, pH 4.5): 3.13 µg/mL
MIC ([8]; LYM broth, pH 5.5): 3.13 µg/mL
MIC ([8]; LYM broth, pH 6.5): 1.56 µg/mL
MIC [8, 14]: 50 µg/mL

Ac-RKWLKWLAKKKKW-NH2 [Peptide W5K03]
GM G−/+ (geometric mean of the MIC values) [1]: 33.0 µg/mL
Therapeutic Index (TI) G−/+ [1]: 3.3
GM G− (geometric mean of the MIC values) [2]: 16.5 µg/mL
Therapeutic Index (TI) G− [2]: 6.6
MIC [3, 9]: 6.25 µg/mL
MIC ([3]; LYM broth, 0.5 mM MgCl2): 12.5 µg/mL
MIC ([3]; LYM broth, 1.5 mM MgCl2): 25 µg/mL
MIC ([3]; LYM broth, 2.5 mM MgCl2): 25 µg/mL
MIC [3, 10]: 25 µg/mL
MIC [3, 11]: 50 µg/mL
MIC [3, 12]: >50 µg/mL
MIC [3, 13]: >50 µg/mL
MIC ([3]; LYM broth, pH 4.5): 6.25 µg/mL
MIC ([3]; LYM broth, pH 5.5): 6.25 µg/mL
MIC ([3]; LYM broth, pH 6.5): 3.13 µg/mL
MIC [3, 14]: 50 µg/mL
MIC [4, 9]: 6.25 µg/mL
MIC ([4]; LYM broth, 0.5 mM MgCl2): 6.25 µg/mL
MIC ([4]; LYM broth, 1.5 mM MgCl2): 12.5 µg/mL
MIC ([4]; LYM broth, 2.5 mM MgCl2): 12.5 µg/mL
MIC [4, 10]: 12.5 µg/mL
MIC [4, 11]: 25 µg/mL
MIC [4, 12]: 25 µg/mL
MIC [4, 13]: >50 µg/mL
MIC ([4]; LYM broth, pH 4.5): 12.5 µg/mL
MIC ([4]; LYM broth, pH 5.5): 6.25 µg/mL
MIC ([4]; LYM broth, pH 6.5): 3.13 µg/mL
MIC [4, 14]: 50 µg/mL
MIC [5, 9]: 1.56 µg/mL
MIC ([5]; LYM broth, 0.5 mM MgCl2): 3.13 µg/mL
MIC ([5]; LYM broth, 1.5 mM MgCl2): 3.13 µg/mL
MIC ([5]; LYM broth, 2.5 mM MgCl2): 3.13 µg/mL
MIC [5, 10]: 3.13 µg/mL
MIC [5, 11]: 3.13 µg/mL
MIC [5, 12]: 6.25 µg/mL
MIC [5, 13]: 12.5 µg/mL
MIC ([5]; LYM broth, pH 4.5): 1.56 µg/mL
MIC ([5]; LYM broth, pH 5.5): 1.56 µg/mL
MIC ([5]; LYM broth, pH 6.5): 1.56 µg/mL
MIC [5, 14]: 12.5 µg/mL
MIC [6, 9]: 25 µg/mL
MIC ([6]; LYM broth, 0.5 mM MgCl2): 25 µg/mL
MIC ([6]; LYM broth, 1.5 mM MgCl2): 25 µg/mL
MIC ([6]; LYM broth, 2.5 mM MgCl2): 50 µg/mL
MIC [6, 10]: 25 µg/mL
MIC [6, 11]: 50 µg/mL
MIC [6, 12]: >50 µg/mL
MIC [6, 13]: >50 µg/mL
MIC ([6]; LYM broth, pH 4.5): 25 µg/mL
MIC ([6]; LYM broth, pH 5.5): 25 µg/mL
MIC ([6]; LYM broth, pH 6.5): 12.5 µg/mL
MIC [6, 14]: >50 µg/mL
MIC [7, 9]: 25 µg/mL
MIC ([7]; LYM broth, 0.5 mM MgCl2): 25 µg/mL
MIC ([7]; LYM broth, 1.5 mM MgCl2): 25 µg/mL
MIC ([7]; LYM broth, 2.5 mM MgCl2): 50 µg/mL
MIC [7, 10]: 50 µg/mL
MIC [7, 11]: 50 µg/mL
MIC [7, 12]: >50 µg/mL
MIC [7, 13]: >50 µg/mL
MIC ([7]; LYM broth, pH 4.5): 25 µg/mL
MIC ([7]; LYM broth, pH 5.5): 25 µg/mL
MIC ([7]; LYM broth, pH 6.5): 12.5 µg/mL
MIC [7, 14]: >50 µg/mL
MIC [8, 9]: 1.56 µg/mL
MIC ([8]; LYM broth, 0.5 mM MgCl2): 1.56 µg/mL
MIC ([8]; LYM broth, 1.5 mM MgCl2): 3.13 µg/mL
MIC ([8]; LYM broth, 2.5 mM MgCl2): 3.13 µg/mL
MIC [8, 10]: 3.13 µg/mL
MIC [8, 11]: 3.13 µg/mL
MIC [8, 12]: 6.25 µg/mL
MIC [8, 13]: 25 µg/mL
MIC ([8]; LYM broth, pH 4.5): 3.13 µg/mL
MIC ([8]; LYM broth, pH 5.5): 3.13 µg/mL
MIC ([8]; LYM broth, pH 6.5): 1.56 µg/mL
MIC [8, 14]: 6.25 µg/mL
